This is an account of results in paper PMC8746798, “Evaluation of 2-Thioxoimadazolidin-4-one Derivatives as Potent Anti-Cancer Agents through Apoptosis Induction and Antioxidant Activation: In Vitro and In Vivo Approaches” (Molecules, 2021).

A short description of data set [1]: Hematological parameters (CBC) in mice. The following applies: 6 mg/Kg BW; for Hemoglobin: mean ± SE n = 9. The data set is classed as in vivo. The method, then: We randomly divided 50 mice into groups 5 groups (10 mice in each group): normal control (I) (mice injected intraperitoneally with the same volume of solvent for 14 consecutive days); group II, a group of normal mice treated with compound 4 (mice injected intraperitoneally with newly produced compound 4 at a dose of 6 mg/kg per day for 14 days); group III, solid tumor group (mice were implanted with solid tumor); group IV, group were treated with 5-FU (after 10 days of tumor implantation, mice were treated with 6 mg/kg only once); and group V, solid tumor group were treated with compound 4 (after 10 days of tumor implantation, mice were treated with 6 mg/kg only once). after one day of the previous treatment, 10 mice from each group were sacrificed and tumor weight, tumor volume (length and width of solid femoral tumor), blood and liver samples were obtained from each group. A portion of each blood sample taken was used for complete blood count (CBC) and the rest was centrifuged to obtain the serum. Serum was used for biochemical parameter estimation. The livers were rapidly dissected, washed with isotonic saline, and dried. The experiment design is summarized in Supplementary Figure S3.
Complete blood counts (CBCs) were counted using an AbbottCELLDYN®1800 Automated Hematology Analyzer (Abbott Park, IL, USA) equipped with an off-the-shelf kit (Abbott Laboratories, Abbott Park, IL, USA). For microscopic histopathological examination, tumor and kidney slices were maintained in 10% formalin, dehydrated with graduated alcohol, embedded in paraffin sections, H&E stained, and hematoxylin stained.

For data set [2], the system named is Solid Ehrlich carcinoma (SEC). Put plainly: In vivo anti-tumor assay: tumor volume and tumor inhibition ratio. The settings on record: SEC-bearing mice, 6 mg/kg; SEC control 5802 mm^3. The method, then: We used adult Swiss albino female mice with average body weight 18–23 g obtained from Theodor Bilharzia Research Institute in Giza, Egypt. Mice were kept under constant conditions of a 12 h light–dark cycle at temperatures below controlled moisture conditions (22 ± 2 °C) with standard laboratory mouse nutrition and water entries. Approval for the experimental protocol was provided from the ethical committee of Suez Canal University for this experimental protocol (approval number REC-06-2020, Faculty of Science, Suez Canal University). Mice were adapted for approximately 10 days before use in the experiment.
Solid Ehrlich carcinoma (SEC) was obtained from the National Cancer Institute (University of Cairo, Egypt). The tumor cell line proliferated in mice after serial implantation of the peritoneal cavity (I.P.) in 0.2 mL of physiological saline containing 1 × 10^6 viable cells for 24 h. […]
We measured the length and width of the tumor using a digital Vernier clipper (Tricle Brand, Shanghai, China), then we calculate the tumor volume using the formula: V = (L × W × W)/2, where V is tumor volume, W is tumor width, and L is tumor length, and calculated the tumor inhibition ratio% using the formula: TIR %= (C − T)/C × 100, where T represents mean tumor volume of treated group and C represents mean tumor volume of the control group.

Data set [3] concerns HepG2 cells. The experiment in a line: DNA content flow cytometry cell cycle analysis. The following applies: HepG2, IC50 = 0.017 μM, 48 h; control 12.26%. Type of data set: cell-based, human. The text has this:
Apoptotic cells were quantified using double staining with annexin V and PI on flow cytometry. […] The detailed methodology of flow cytometric analysis (annexin V/PI differential apoptosis/necrosis, DNA content–flow cytometry aided cell cycle) is provided in the Supplementary Materials.
Supplementary materials for detailed methodology
Evaluation of 2-thioxoimadazolidin-4-one Derivatives as Potent
Anti-cancer Agents Through Apoptosis Induction and Antioxi-dant Activation: In vitro and In vivo Approaches
Mohamed S. Nafie 1,*, Ahmed I. Khodair 2,*, Hebat Allah Y. Hassan 3, Noha M. Abd El-Fadeal 4, Hanin A. Bogari 5 , Sameh S. Elhady 6 and Safwat A. Ahmed 3,7,* […]
Apoptosis and necrosis cell populations are determined using Annexin V-FITC apop-tosis detection kit (Abcam Inc., Cambridge Science Park, Cambridge, UK) coupled with 2 fluorescent channels flowcytometry. […]
Then, cells are incubated in dark with 0.5 ml of Annexin V-FITC/PI solution for 30 min in dark at room temperature according to manufacturer protocol. After staining, cells are injected via ACEA Novocyte™ flowcytometer (ACEA Biosciences Inc., San Diego, CA, USA) and analyzed for FITC and PI fluorescent signals using FL1 and FL2 signal detector, respectively (λex/em 488/530 nm for FITC and λex/em 535/617 nm for PI). […]
Background: In flow cytometry, cells or beads pass a laser one at a time.

Take `O=C1NC(=S)N(c2ccc(O)cc2)/C1=C/c1cccs1` [Compound 4, (E)-1-(4-Hydroxyphenyl)-5-(thiophen-2-ylmethylene)-2-thioxoimidazolidin-4-one]: the “RBC’s count” value was 9.3 ± 0.4 ×10^6/µL in data set [1] (SEC-bearing mice, SEC control 7.52 ± 0.5) and 8.7 ± 0.4 ×10^6/µL in data set [1] (normal mice, normal control 8.8 ± 0.3). In addition, the Hemoglobin was found to be 13.3 ± 0.7 g/dL in data set [1] (SEC-bearing mice, SEC control 11.8 ± 0.8) and 12.6 ± 0.5 g/dL in data set [1] (normal mice, normal control 13.3 ± 0.7). Moreover, the “WBC’s count” value in data set [1] (SEC-bearing mice, SEC control 16.5 ± 3.4) is reported as 9.5 ± 1.9 ×10^3/µL; in data set [1] (normal mice, normal control 9.4 ± 1.2) it was 9.42 ± 1.3 ×10^3/µL. In addition, the “tumor volume on the final day” value in data set [2] came to 2766 mm^3. The “% cells in G2/M phase” value in data set [3] came out at 21.15%.
